Where “and” joins values, the source holds several entries; their conditions need not be identical. Equal entries are not always repeated. Some results are limits rather than exact numbers.

We go through 6 compounds from PubChem BioAssay AID1963982 (Molecular Pharmacology Branch, DTP, NCI, 2024).

The subject of the assay is 313798-341-R-J2-PDC spheroids, viability. In words: Anticancer human tumor 313798-341-R-J2-PDC patient-derived cervical squamous cell carcinoma cell line growth inhibition [PI3K]. Particulars: spheroids with HUVEC and MSC; for viability, T/C: stronger effect = lower value; for IC50: curve of compound. An excerpt: Combinatorial screen of targeted agents with the PI3K inhibitors inavolisib, alpelisib, duvelisib, and copanlisib in multi-cell type tumor spheroids
A high-throughput screen of multi-cell type tumor spheroids was designed to identify active combinations of targeted small molecules and PI3K pathway inhibitors. Complex spheroids include a stromal component modeled by human endothelial cells (HUVEC) and fibroblasts modeled by human mesenchymal stem cells (MSCs). The concentration ranges selected for each drug and investigational agent were based upon clinically achievable concentrations if the clinical Cmax of the agent was known.
Compounds. The drugs and investigational agents: inavolisib (NSC800729), alpelisib (NSC765974), duvelisib (NSC772469), copanlisib (NSC816437), ipatasertib (NSC767898), afuresertib (NSC778305), talazoparib (NSC767125), sapanisertib (NSC764658), selumetinib (NSC741078), tovorafenib (DAY101, NSC766906), vemurafenib (NSC761431), ravoxertinib (NSC781343), sotorasib (NSC818433), MRTX1133 (NSC 836407), abemaciclib (NSC 768073), palbociclib (NSC758247), venetoclax (NSC 766270), SY5609 (NSC837396), enzalutamide (NSC755605), and darolutamide (NSC825331), were obtained from the National Cancer Institute (NCI) Developmental Therapeutics Program Chemical Repository. The FDA-approved anticancer drug set is available from the NCI Developmental Therapeutics Program. […] The stock solutions were prepared in dimethyl sulfoxide (DMSO, Sigma-Aldrich, St. Louis, MO, cat. D2650) at 800-fold the tested concentration and stored at -70 degrees C prior to their use. All drugs and investigational agents were tested over a range starting from a high concentration at or near the clinical Cmax and decreasing in half-log increments. If the clinical Cmax for an agent had not been determined, the highest concentration tested was 10 microM.
Cell Culture. All cells were maintained in an incubator at 37 degrees C and 5% CO2 with 95% humidity. The PDC lines were cultured according to standard operating procedures established by the NCI PDMR (https://pdmr.cancer.gov/sops/default.htm). All PDCs were thawed and cultured in Matrigel-coated flasks prepared with a working solution of 1X Ham's F-12 nutrient mix, without supplementation (Invitrogen, Waltham, MA, cat. 11765054), 100 U/mL penicillin-streptomycin (Invitrogen, cat. 15140122), and 2.5% Matrigel (Corning Inc., Corning, NY, cat. 354248) for the first three passages. The 354836-022-R-J1-PDC, 475296-252-R-J1-PDC, and 997726-040-R-J2-PDC lines were cultured in 6A media, which includes advanced DMEM/F-12 (Thermo Fisher Scientific, cat. 12634028), 10 mM HEPES (Thermo Fisher Scientific, cat. 15630080), 1X GlutaMAX supplement (Thermo Fisher Scientific, cat. 35050061), 0.1 mg/mL primocin (InvivoGen, San Diego, CA, cat. ant-pm-2), 10% defined fetal bovine serum, heat inactivated (HyClone Laboratories Inc., Logan, UT, cat. SH30070.03HI), 50% L-WRN conditioned media (ATCC, cat. CRL-3276), 1.25 mM N-Acetyl-L-cysteine (Sigma-Aldrich, cat. A9165), 10 mM nicotinamide (Sigma-Aldrich, cat. N0636), 1X B-27 supplement (Thermo Fisher Scientific, cat. 17504044), 1X N-2 supplement (Thermo Fisher Scientific, cat. 17502048), and 10 microM Y-27632 dihydrochloride (Tocris Bioscience, Bristol, United Kingdom, cat. 1254). The 624824-186-R-J2-PDC line was cultured in 6C/Colon 1B media, which includes all 6A media components plus 50 ng/mL human EGF recombinant protein (Thermo Fisher Scientific, cat. PHG0311). […]
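Further: spheroids exposed to compounds for seven days.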

One may read the viability, T/C as the result in the treated group divided by that in the control group, in per cent. Usually IC50 stands for the concentration at which inhibition is half-maximal. In the case of `C#Cc1c(F)ccc2cc(O)cc(-c3ncc4c(N5CC6CCC(C5)N6)nc(OCC56CCCN5CC(F)C6)nc4c3F)c12` (stereo not given), the IC50 was over 10 µM. Further, the viability, T/C (compound 0.0316 µM) is 102% [middle of 4 runs]. The viability, T/C (compound 0.1 µM) was 105% [middle of 4 runs]. Moreover, under “compound 0.316 µM”, the viability, T/C is 108% [middle of 4 runs]. Moreover, the viability, T/C (compound 1 µM) was 98.5% [middle of 4 runs]. Also, where the note is “compound 3.16 µM”, the viability, T/C is 106% [middle of 4 runs]. In addition, the viability, T/C (compound 10 µM) is 95.2% [middle of 4 runs].

On to `C=CC(=O)N1CCN(c2nc(=O)n(-c3c(C)ccnc3C(C)C)c3nc(-c4c(O)cccc4F)c(F)cc23)C(C)C1` (stereo not given), for which the IC50 was over 10 µM. Moreover, the viability, T/C (compound 0.0316 µM) is 100% [middle of 4 runs]. Also, the viability, T/C (compound 0.1 µM) is 95% [middle of 4 runs]. The viability, T/C (compound 0.316 µM) was 95.7% [middle of 4 runs]. Further, for the setting “compound 1 µM”, the viability, T/C was 97.1% [middle of 4 runs]. Besides, where the note is “compound 3.16 µM”, the viability, T/C is 105% [middle of 4 runs]. Moreover, where the note is “compound 10 µM”, the viability, T/C was 96.5% (2×) and 104% and 105%.

As for `CC(Cn1ccc(-c2ccc(C#N)c(Cl)c2)n1)NC(=O)c1cc(C(C)O)[nH]n1` (stereo not given), the IC50 is over 10 µM. The viability, T/C (compound 0.0316 µM) was 98.1% and 107% and 99.7%. Further, the viability, T/C (compound 0.1 µM) is 111% and 96.9% and 101%. Moreover, where the note is “compound 0.316 µM”, the viability, T/C was 101% and 107% and 113%. In addition, under “compound 1 µM”, the viability, T/C is 113% and 97.7% and 93.9%. For the setting “compound 3.16 µM”, the viability, T/C was 99% and 105% and 104%. Besides, where the note is “compound 10 µM”, the viability, T/C was 99.1% and 101% and 93.9%.

For `CC1(C)CCC(Nc2ncc(C(F)(F)F)c(-c3c[nH]c4c(P(C)(C)=O)c(C#N)ccc34)n2)CN1` (stereo not given), the viability, T/C is, setting by setting: (compound 0.0316 µM) 56.6% [middle of 4 runs]; (compound 0.1 µM) 46.7% [middle of 4 runs]; (compound 0.316 µM) 50.4% [middle of 4 runs]; (compound 1 µM) 53.8% [middle of 4 runs]; (compound 3.16 µM) 58.9% [middle of 4 runs].

On to `Cn1ncc(Cl)c1-c1cc(C(=O)NC(CN)Cc2cccc(F)c2)sc1Cl` (stereo not given), for which the IC50 was 996 nM [middle of 4 runs]. In addition, the viability, T/C (compound 0.0316 µM) is 105% [middle of 4 runs]. Besides, the viability, T/C (compound 0.1 µM) was 97.5% [middle of 4 runs]. For the same compound, the viability, T/C (compound 0.316 µM) was 79.1% [middle of 4 runs]. Besides, the viability, T/C (compound 1 µM) was 49.9% [middle of 4 runs]. Moreover, for the setting “compound 3.16 µM”, the viability, T/C was 34.7% [middle of 4 runs]. In addition, the viability, T/C (compound 10 µM) was 34.5% [middle of 4 runs].

Take `Cn1nccc1Nc1nccc(-c2ccn(C(CO)c3ccc(Cl)c(F)c3)c(=O)c2)n1` (stereo not given): the IC50 is over 10 µM. Besides, the viability, T/C (compound 0.0316 µM) is 98.7% and 101% (2×) and 96.5%. For the same compound, under “compound 0.1 µM”, the viability, T/C is 95.3% [middle of 4 runs]. For the same compound, the viability, T/C (compound 0.316 µM) is 98.6% [middle of 4 runs]. Also, the viability, T/C (compound 1 µM) was 100% [middle of 4 runs]. For the same compound, the viability, T/C (compound 3.16 µM) was 116% [middle of 4 runs]. In addition, the viability, T/C (compound 10 µM) was 96.9% and 104% (2×) and 105%.
